Results as given in ChEMBL document CHEMBL1909046, “DrugMatrix in vitro pharmacology data”.

What was measured:
[1] = molecular target: Epidermal growth factor receptor (Homo sapiens, UniProt P00533); assay: DRUGMATRIX: Protein Tyrosine Kinase, EGF Receptor enzyme inhibition (substrate: Poly(Glu:Tyr)); assay type: cell-based, Insect cells; conditions: insect cells; Not Active = under 50% inhibition at 10 µM
[2] = DRUGMATRIX: GABAA, Chloride Channel, TBOB radioligand binding (ligand: [3H] TBOB); assay type: cell membranes, Rattus norvegicus, Wistar, Cerebral cortex, Membrane; conditions: Not Active = under 50% inhibition at 10 µM
[3] = DRUGMATRIX: Interleukin IL-1 radioligand binding (ligand: [125I] interleukin 1beta); assay type: cell membranes, Membrane; conditions: nih3t3; Not Active = under 50% inhibition at 10 µM
[4] = molecular target: T1, Muscarinic acetylcholine receptor M5 (Homo sapiens, UniProt P08912); assay type: cell membranes, CHO-K1, Membrane; conditions: cho-k1; further: in other assays of this panel Not Active means under 50% inhibition at 10 µM
T1 sequence (P08912 whole entry): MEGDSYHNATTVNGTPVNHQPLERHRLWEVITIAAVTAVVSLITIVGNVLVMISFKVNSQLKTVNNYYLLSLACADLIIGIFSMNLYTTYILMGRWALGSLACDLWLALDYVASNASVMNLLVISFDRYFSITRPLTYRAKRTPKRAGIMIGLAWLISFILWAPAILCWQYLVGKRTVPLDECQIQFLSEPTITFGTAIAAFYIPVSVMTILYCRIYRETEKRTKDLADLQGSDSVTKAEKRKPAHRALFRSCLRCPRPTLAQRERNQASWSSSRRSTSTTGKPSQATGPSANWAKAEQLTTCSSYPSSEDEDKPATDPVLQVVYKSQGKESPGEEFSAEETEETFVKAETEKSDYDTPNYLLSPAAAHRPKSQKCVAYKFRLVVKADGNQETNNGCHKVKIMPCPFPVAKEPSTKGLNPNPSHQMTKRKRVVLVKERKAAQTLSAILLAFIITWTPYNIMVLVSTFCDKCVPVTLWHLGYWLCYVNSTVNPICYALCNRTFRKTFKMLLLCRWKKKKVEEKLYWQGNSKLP

Melanocortin receptor 5 = Melanocortin receptor 5 (Homo sapiens, UniProt P33032); assay type: cell membranes, HEK293, Membrane; conditions: hek293; further: in other assays of this panel Not Active means under 50% inhibition at 10 µM
D(4) dopamine receptor = molecular target: T2, D(4) dopamine receptor (Homo sapiens, UniProt P21917); assay: DRUGMATRIX: Dopamine D4.2 radioligand binding (ligand: [3H] Spiperone); assay type: cell membranes, CHO-K1, Membrane; conditions: cho-k1; Not Active = under 50% inhibition at 10 µM
T2 sequence (P21917 whole entry): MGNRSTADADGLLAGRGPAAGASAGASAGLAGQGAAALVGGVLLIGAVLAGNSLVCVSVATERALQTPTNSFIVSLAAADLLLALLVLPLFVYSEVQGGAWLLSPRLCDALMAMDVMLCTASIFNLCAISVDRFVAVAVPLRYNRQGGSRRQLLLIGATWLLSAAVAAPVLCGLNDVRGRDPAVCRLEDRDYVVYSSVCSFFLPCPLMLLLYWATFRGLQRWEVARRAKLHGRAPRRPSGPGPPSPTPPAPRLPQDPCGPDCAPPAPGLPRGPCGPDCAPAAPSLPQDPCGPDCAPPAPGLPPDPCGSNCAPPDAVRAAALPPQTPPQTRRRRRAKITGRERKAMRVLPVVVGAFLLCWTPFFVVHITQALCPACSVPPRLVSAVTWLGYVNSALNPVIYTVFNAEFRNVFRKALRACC

[5] = molecular target: T3, Angiotensin-converting enzyme (Oryctolagus cuniculus, UniProt P12822); assay: biochemical; assay type: tissue-based, Lung;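 further: enzymatic inhibition of angiotensin-converting enzyme measured with FAPGG as the substrate; in other assays of this panel Not Active means under 50% inhibition at 10 µM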
T3 sequence (P12822 whole entry): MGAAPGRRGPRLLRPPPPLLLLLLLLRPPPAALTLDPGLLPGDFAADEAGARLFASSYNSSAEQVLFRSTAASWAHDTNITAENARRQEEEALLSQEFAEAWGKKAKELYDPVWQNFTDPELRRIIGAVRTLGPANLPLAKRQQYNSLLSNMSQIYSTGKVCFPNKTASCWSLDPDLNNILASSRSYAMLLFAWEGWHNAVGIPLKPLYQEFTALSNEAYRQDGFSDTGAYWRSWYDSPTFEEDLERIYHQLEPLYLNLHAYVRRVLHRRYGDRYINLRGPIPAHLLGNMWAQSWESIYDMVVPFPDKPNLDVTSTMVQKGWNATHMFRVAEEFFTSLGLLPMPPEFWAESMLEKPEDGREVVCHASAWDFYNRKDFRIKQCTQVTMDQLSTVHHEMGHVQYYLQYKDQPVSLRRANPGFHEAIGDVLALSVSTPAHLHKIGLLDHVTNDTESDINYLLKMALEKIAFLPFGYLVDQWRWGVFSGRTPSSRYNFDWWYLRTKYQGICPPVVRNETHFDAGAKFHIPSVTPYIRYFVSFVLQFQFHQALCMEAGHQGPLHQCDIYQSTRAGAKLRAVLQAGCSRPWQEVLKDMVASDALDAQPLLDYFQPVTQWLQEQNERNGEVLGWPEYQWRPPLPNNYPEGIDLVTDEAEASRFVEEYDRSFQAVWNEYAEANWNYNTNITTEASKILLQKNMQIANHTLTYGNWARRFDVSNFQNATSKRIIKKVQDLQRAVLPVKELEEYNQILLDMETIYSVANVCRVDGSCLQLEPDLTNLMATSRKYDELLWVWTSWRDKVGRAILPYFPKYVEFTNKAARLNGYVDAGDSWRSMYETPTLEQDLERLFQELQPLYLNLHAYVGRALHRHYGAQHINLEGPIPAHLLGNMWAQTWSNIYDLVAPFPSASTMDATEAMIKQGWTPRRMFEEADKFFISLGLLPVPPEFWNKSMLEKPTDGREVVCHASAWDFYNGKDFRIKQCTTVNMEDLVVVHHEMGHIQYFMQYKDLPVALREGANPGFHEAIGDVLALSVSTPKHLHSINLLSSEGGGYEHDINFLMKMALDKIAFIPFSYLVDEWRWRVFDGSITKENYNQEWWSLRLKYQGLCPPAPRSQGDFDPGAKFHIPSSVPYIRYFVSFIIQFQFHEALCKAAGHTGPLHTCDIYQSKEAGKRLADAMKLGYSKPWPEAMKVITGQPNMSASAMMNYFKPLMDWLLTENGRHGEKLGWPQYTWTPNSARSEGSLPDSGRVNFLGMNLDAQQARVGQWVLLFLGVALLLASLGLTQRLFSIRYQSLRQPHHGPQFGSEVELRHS

[6] = DRUGMATRIX: Glutamate, NMDA, Agonism radioligand binding (ligand: [3H] CGP-39653); assay type: cell membranes, Rattus norvegicus, Wistar, Cerebral cortex, Membrane; conditions: Not Active = under 50% inhibition at 10 µM

Chain of Epidermal growth factor receptor (P00533 whole entry): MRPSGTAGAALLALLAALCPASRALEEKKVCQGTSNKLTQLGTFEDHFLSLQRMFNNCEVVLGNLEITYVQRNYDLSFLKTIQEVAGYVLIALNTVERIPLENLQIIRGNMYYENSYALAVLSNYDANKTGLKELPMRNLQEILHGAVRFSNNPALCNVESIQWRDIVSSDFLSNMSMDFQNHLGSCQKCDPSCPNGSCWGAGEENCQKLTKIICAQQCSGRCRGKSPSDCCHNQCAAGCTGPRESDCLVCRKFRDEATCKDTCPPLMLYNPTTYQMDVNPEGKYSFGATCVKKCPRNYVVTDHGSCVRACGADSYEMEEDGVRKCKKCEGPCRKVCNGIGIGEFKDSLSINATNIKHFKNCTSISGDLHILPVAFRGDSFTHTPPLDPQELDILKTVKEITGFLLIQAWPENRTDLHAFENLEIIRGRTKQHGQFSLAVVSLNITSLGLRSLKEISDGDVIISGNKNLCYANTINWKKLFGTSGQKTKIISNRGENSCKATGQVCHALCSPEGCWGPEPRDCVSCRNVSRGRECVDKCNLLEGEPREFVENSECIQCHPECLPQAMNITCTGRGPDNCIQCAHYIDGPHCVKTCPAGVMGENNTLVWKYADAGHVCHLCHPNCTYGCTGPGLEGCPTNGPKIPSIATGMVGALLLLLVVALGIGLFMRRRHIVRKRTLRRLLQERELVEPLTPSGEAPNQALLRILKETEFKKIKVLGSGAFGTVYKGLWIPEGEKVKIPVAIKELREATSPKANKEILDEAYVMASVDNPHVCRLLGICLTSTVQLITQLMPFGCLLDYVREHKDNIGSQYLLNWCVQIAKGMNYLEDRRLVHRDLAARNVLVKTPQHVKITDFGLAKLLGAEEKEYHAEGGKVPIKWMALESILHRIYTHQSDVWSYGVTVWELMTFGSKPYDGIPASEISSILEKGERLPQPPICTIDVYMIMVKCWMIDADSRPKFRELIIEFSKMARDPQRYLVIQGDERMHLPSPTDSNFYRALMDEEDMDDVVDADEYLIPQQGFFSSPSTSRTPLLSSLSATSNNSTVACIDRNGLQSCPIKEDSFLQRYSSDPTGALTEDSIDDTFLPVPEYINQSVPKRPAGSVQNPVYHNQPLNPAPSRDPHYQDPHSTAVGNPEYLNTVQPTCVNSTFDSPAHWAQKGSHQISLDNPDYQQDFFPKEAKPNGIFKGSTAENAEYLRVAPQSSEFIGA
Chain of Melanocortin receptor 5 (P33032 whole entry): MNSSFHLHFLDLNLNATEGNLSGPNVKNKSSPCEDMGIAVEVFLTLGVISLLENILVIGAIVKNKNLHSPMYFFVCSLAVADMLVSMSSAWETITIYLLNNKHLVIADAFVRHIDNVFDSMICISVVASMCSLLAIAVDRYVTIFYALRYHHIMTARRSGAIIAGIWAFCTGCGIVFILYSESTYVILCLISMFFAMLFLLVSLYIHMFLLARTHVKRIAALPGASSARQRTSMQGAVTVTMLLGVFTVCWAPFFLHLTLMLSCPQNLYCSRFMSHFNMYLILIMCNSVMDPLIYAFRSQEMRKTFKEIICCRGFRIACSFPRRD

Cc1ncc([N+](=O)[O-])n1CC(C)O (configuration not stated) [SECNIDAZOLE]
Not Active: IC50 [1] | IC50 [2] | Ki [2] | IC50 [3] | Ki [3] | IC50 [4] | IC50 (Melanocortin receptor 5) | IC50 (D(4) dopamine receptor) | IC50 [5] | IC50 [6] | Ki [6]

CCC[C@@H]1C[C@@H](C(=O)N[C@@H]([C@H]2O[C@H](SC)[C@H](O)[C@@H](O)[C@H]2O)[C@@H](C)O)N(C)C1 [LINCOMYCIN]
Not Active: IC50 [1] | IC50 [2] | Ki [2] | IC50 [3] | Ki [3] | IC50 [4] | IC50 (Melanocortin receptor 5) | IC50 (D(4) dopamine receptor) | IC50 [5] | IC50 [6] | Ki [6]
